Experimental data published in US20230331739A1, “INDOLO HEPTAMYL OXIME ANALOG CRYSTAL AS PARP INHIBITOR AND METHOD FOR PREPARING SAME” (CHIA TAI TIANQING PHARMACEUTICAL GROUP CO., LTD., priority 2020, published 2023).

Columns and labels:
[1] = Protein binding rate in plasma (equilibrium dialysis), human; format: in vitro ADME; conditions: 4 h dialysis
Procedure: The protein binding rates of the compound disclosed herein in plasma of human, CD-1 mice and SD rats were determined. 796 μL of blank plasma was taken from human, CD-1 mice or SD rats, and 4 μL of test compound working solution (400 μM) or warfarin working solution (400 μM) was added to achieve a final concentration of 2 μM of both the test compound and the warfarin in the plasma sample. The samples were mixed well. The final concentration of organic phase DMSO was 0.5%; 50 μL of test compound and warfarin plasma sample was pipetted into a sample receiving plate (in triplicate), and a corresponding volume of blank plasma or buffer was immediately added such that the final volume in each sample well was 100 μL. The volume ratio of plasma to dialysis buffer was 1:1. […] All samples were subjected to LC/MS analysis after protein precipitation, and the protein binding rates and the recovery rates were calculated by the following formulas: protein unbinding rate (%)=100× drug concentration passing through dialysis membrane/drug concentration not passing through dialysate; protein binding rate (%)=100−protein unbinding rate (%); recovery rate (%)=100×(drug concentration passing through dialysis membrane+drug concentration not passing through dialysate)/total drug concentration before dialysis.

[2] = system: human breast cancer MDA-MB-436 cell xenograft tumor; assay: In vivo pharmacodynamic study in subcutaneous MDA-MB-436 xenograft tumor model; set-up: species or system BALB/c nude mouse; conditions: for Tumor volume (day 27): Mean ± SEM; for T/C / TGI: day 27
Description: Objective: To study the in vivo efficacy of the test compound in BALB/c nude mouse model with subcutaneous human breast cancer MDA-MB-436 cell xenograft tumor.
Materials: Age and body weight: female BALB/c nude mice, aged 6-8 weeks, 18-22 g. The study started after 3-7 days of adaptive feeding. The animal information card of each cage was labeled with the following information about the animals: number, sex, strain, receipt date, regime, study number, group and start of treatment. All the cages, padding and drinking water were sterilized before use. The cages, feed and drinking water were refreshed twice a week. The animals were identified with ear tags. Test samples: Nirapariband and compound 1. All the test samples were prepared with 10% DMSO+90% (20% HP-β-CD) as vehicle, and the blank control group was administered with the vehicle alone.
1. Cell culturing: Human breast cancer MDA-MB-436 cells (ATCC, Manassas, VA, catalog No.: HTB-130) were cultured in an RPMI-1640 culture medium containing 10% fetal bovine serum and 1% Anti-anti through in vitro monolayer culture in an incubator at 37° C./5% CO2. The cells were digested with trypsin-EDTA twice a week for passaging as per conventional practice. At a cell saturation of 80%-90% and a required number, the cells were collected, counted and grafted.
2. Tumor cell grafting (tumor grafting): 0.2 mL (1×10^7 cells) of MDA-MB-436 cells (along with matrigel in a volume ratio of 1:1) was subcutaneously grafting on the right back of each mouse, and the mice were randomly divided into groups for administration after the mean tumor volume was approximately 318 mm^3.
3. Daily observation of animals: the animals were monitored daily for health and death, and routine examinations include observation of the effect on tumor growth and the therapy on the daily performance of the animals, such as behavioral activities, food and water intake, change in body weight, appearance, or other abnormal conditions.
4. Tumor measurement and experimental indexes: the experimental indexes were to investigate whether the tumor growth was inhibited or delayed or the tumor was cured. Tumor diameters were measured twice weekly using a vernier caliper. The tumor volume was calculated using the following formula: V=0.5 a×b^2, where a and b represent the long diameter and short diameter of the tumor, respectively. The anti-tumor efficacy of the compound was evaluated by TGI (%) or relative tumor proliferation rate T/C (%). TGI (%) refers to the tumor growth inhibition. Calculation of TGI (%): TGI (%)=[(1−(mean tumor volume at the end of administration of a treatment group−mean tumor volume at the start of administration of the treatment group))/(mean tumor volume at the end of treatment of the solvent control group−mean tumor volume at the start of treatment of the solvent control group)]×100%. The calculation formula for relative tumor proliferation rate T/C (%) was as follows: T/C (%)=TRTV/CRTV×100% (TRTV: RTV of treatment group; CRTV: RTV of negative control group). Relative tumor volume (RTV) was calculated based on the results of tumor measurement. The calculation formula was: RTV=Vt/V0, where V0 was the mean tumor volume measured at the time of grouping and administration (i.e., do), Vt was the mean tumor volume at a certain measurement, and the data of TRTV and CRTV were obtained on the same day.
5. Statistical analysis: including mean and standard error of mean (SEM) of tumor volume at each time point in each group. […] The experimental data were analyzed using one-way ANOVA and Games-Howell method. All the data were analyzed using SPSS 17.0. p<0.05 was defined as significance.

SMILES: C[C@]1(c2ccc(-c3[nH]c4cc(F)cc5c4c3CONC5=O)cc2)CCCN1 [Compound 1]
- fraction unbound at 4 h, 2 μM [1]: 0.149
- Tumor volume (day 27) ([2]; 12.5 mg/kg PO QD × 28 days): 377 ± 149 mm^3
- T/C ([2]; 12.5 mg/kg PO QD × 28 days): 23.79%
- TGI ([2]; 12.5 mg/kg PO QD × 28 days): 95.34%
- Tumor volume (day 27) ([2]; 25 mg/kg PO QD × 28 days): 132 ± 32 mm^3
- T/C ([2]; 25 mg/kg PO QD × 28 days): 8.31%
- TGI ([2]; 25 mg/kg PO QD × 28 days): 114.69%
- Tumor volume (day 27) ([2]; 50 mg/kg PO QD × 28 days): 91 ± 14 mm^3
- T/C ([2]; 50 mg/kg PO QD × 28 days): 5.76%
- TGI ([2]; 50 mg/kg PO QD × 28 days): 117.86%
